System: NCI-N87, a human gastric carcinoma cell line
Conditions: read-out: IC50 of NCI-N87 cells, 120 hours incubation, MTT
Procedure: The inhibition % was calculated according to the following equation: inhibition %=[1-(assay-blank)/(control-blank)]×100.

## T-DM1
  IC50: 0.32 nM

— patent US20230025327A1, “CONJUGATES OF TUBULYSIN DERIVATIVES AND CELL BINDING MOLECULES AND METHODS OF MAKING” (Hangzhou DAC Biotech Co., Ltd., priority 2019, published 2023)
